The text below walks through data of patent publication US20070213396A1, “Active Substance Combinations Having Insecticidal Properties” (BAYER CROPSCIENCE AG, priority 2004, published 2007).

SMILES strings stand for the structures. Several values for one entry are separate records, joined by “and”; a condition that tells them apart may be missing. Equal values may be shown once.

Type in all cases: in vivo
Conditions in all cases: single active compound

Experiment [1] deals with Phaedon cochleariae larvae. In words: Phaedon cochleariae larvae test (cabbage leaf dip). The text has this: (§1) The expected action for a given combination of two active compounds can be calculated as follows, according to S. R. Colby, Weeds 15 (1967), 20-22: • If • X is the kill rate, expressed as a percentage of the untreated control, when employing active compound A at an application rate of m g/ha or in a concentration of m ppm, • Y is the kill rate, expressed as a percentage of the untreated control, when employing active compound B at an application rate of n g/ha or in a concentration of n ppm and • E is the kill rate, expressed as a percentage of the untreated control, when employing active compounds A and B at application rates of m and n g/ha or in a concentration of m and n ppm, • then [formula] If the actual insecticidal kill rate exceeds the calculated value, the kill of the combination is superadditive, i.e. a synergistic effect is present. In this case, the actually observed kill rate must exceed the value calculated using the above formula for the expected kill rate (E).
phaedon cochlearise Larvae Teast
(§2) To produce a suitable preparation of active compound, 1 part by weight of active compound is mixed with the stated amounts of solvent and emulsifier, and the concentrate is diluted with emulsifier-containing water to the desired concentration.
Cabbage leaves (Brassica oleracea) are treated by being dipped into the preparation of active compound of the desired concentration and are populated with […] (Phaedon cochleariae) while the leaves are still moist.
(§3) After the desired period of time, the kill in % is determined. 100% means that all caterpillars have been killed; 0% means that none of the caterpillars have been killed. The determined kill rates are entered into Colby's formula (see sheet 1).

Experiment [2] has as its system caterpillars of the cotton bollworm (Heliothis armigera). In words: Heliothis armigera test (cabbage leaf dip).
Text: as §1, §2
Cabbage leaves (Brassica oleracea) are treated by being dipped into the preparation of active compound of the desired concentration and are populated with caterpillars of the cotton bollworm (Heliothis armigera) while the leaves are still moist.
as §3

Experiment [3] concerns caterpillars of the beet armyworm (Spodoptera exigua). In words: Spodoptera exigua test (cabbage leaf dip).
Text: as §1
The produce a suitable preparation of active compound, 1 part by weight of active compound is mixed with the stated amounds of solvent and emulsifier, and the concentrate is diluted with emulsifier-containing water to the desired concentration. […]
After the desired period of time, the kill in % is determined. […] The determined kill rates are entered into Colby's formula (see sheet 1)

With `CC1(C)C(/C=C(\Cl)C(F)(F)F)C1C(=O)OC(C#N)c1cccc(Oc2ccccc2)c1` (stereo not drawn) [lambda-cyhalothrin], the “Kill in % after 3 d” value in experiment [1] (0.16 ppm) was determined as 15%.

Regarding `CC1(C)[C@H](C(=O)O[C@H](C#N)c2cccc(Oc3ccccc3)c2)[C@@H]1C=C(Br)Br` [deltamethrin], the “Kill in % after 3 d” value in experiment [2] (0.032 ppm) was found to be 10%. Moreover, the “Kill in % after 6 d” value in experiment [1] (0.16 ppm) amounted to 50%.

On to `O=C(NC(=O)c1ccccc1Cl)Nc1ccc(OC(F)(F)F)cc1` [triflumuron], for which the “Kill in % after 3 d” value in experiment [2] (0.8 ppm) is 0%; in experiment [1] (4 ppm) it was 25% and 35%. For the same compound, the “Kill in % after 6 d” value amounted to 0% in experiment [2] (4 ppm), 20% in experiment [3] (4 ppm) and 65% in experiment [1] (4 ppm).

Take `CC1(C)C(C=C(Cl)Cl)C1C(=O)OC(C#N)c1ccc(F)c(Oc2ccccc2)c1` (stereo not drawn) [β-cyfluthrin]: in experiment [2] (0.16 ppm), the “Kill in % after 6 d” value is on record as 65%. Besides, the “Kill in % after 3 d” value in experiment [1] (0.16 ppm) was 15%.

Regarding `CC1(C)C(C=C(Cl)Cl)C1C(=O)OCc1cccc(Oc2ccccc2)c1` (stereo not drawn) [permethrin], the “Kill in % after 6 d” value in experiment [2] (0.16 ppm) worked out at 15%; in experiment [3] (0.16 ppm), 0%.
